Reference: patent US8440718B2, “Modulation of inflammation related to columnar epithelia” (The Brigham and Women's Hospital, Inc., priority 1991, dated 2013)
“And” between values parts separate entries of the source, which are not always exact repeats. Equal values may be shown once.

Legend:
[1] = test system: human PMN migration across T84 epithelial monolayers; assay: PMN transepithelial migration assay, apical-to-basolateral direction, fMLP gradient, myeloperoxidase readout; assay type: cell-based
Method: Cell culture Approximately 350 epithelial monolayers were used for these studies. T84 intestinal epithelial cells (passages 70-95) were grown and maintained as confluent monolayers on collagen coated permeable support. Monolayers were grown on 0.33 cm^2 ring-supported polycarbonate filters (Costar Corp., Cambridge, Mass.) and utilized 6-14 days after plating as described in Example 2. Transepithelial resistance to passive ion flow was measured as described in Parkos C. A., et al. (1991). J. Clin. Invest. 88: 1605-1612); and Parkos C. A., et al. (1992). J. Cell. Biol. 117: 757-764). Inverted monolayers used to study migration of PMN in the basolateral-to-apical direction were constructed as described in Parkos C. A., et al. (1991). J. Clin. Invest. 88:1605-1612).
Migration assay: The PMN transepithelial migration assay has been detailed in Nash S., et al. (1987). J. Clin. Invest. 80: 1104-1113; Nash S., et al. (1991). J. Clin. Invest 87: 1474-1477); Parkos C. A., et al. (1991). J. Clin. Invest. 88: 1605-1612); and Parkos C. A., et al. (1992). J. Cell. Biol. 117: 757-764. Briefly, human PMN were isolated from normal human volunteers and suspended in modified HBSS (without Ca^2+ and Mg^2+, with 10 mM Hepes, pH 7.4, Sigma) at a concentration of 5×10^7/ml. Prior to addition of PMN, T84 monolayers were extensively rinsed in HBSS to remove residual serum components. Migration assays were performed by the addition of PMN (40 μl) to HBSS ([…]) in the upper chambers after chemoattractant (1 μM fMLP in HBSS) was added to the opposing (lower) chambers. Unless otherwise indicated, PMN were not washed free of LXA4 prior to addition to monolayers, and therefore, a five-fold dilution of lipoxin was present during the migration assay. For apical-to-basolateral migration experiments, PMN (2×10^6) were added at time 0. Migration in the basolateral-to-apical direction, while qualitatively similar, is substantially more efficient than in the apical-to-basolateral direction. (Parkos C. A., et al. (1991). J. Clin. Invest. 88: 1605-1612). Therefore, 5-fold fewer PMN (4×10^5) were added when migration proceeded in the basolateral-to-apical direction in order that baseline migration signals be approximately equivalent in both directions. (Parkos C. A., et al. (1991). J. Clin. Invest. 88: 1605-1612). Migration was allowed to proceed for 120 minutes, unless otherwise noted. All PMN transepithelial migration experiments were performed in a 37° C. room to ensure that epithelial monolayers, solutions, plasticware, etc., were maintained at uniform 37° C. temperature.
(§1) Migration was quantitated by assaying for the PMN azurophilic granule marker myeloperoxidase (MPO) as described previously (Parkos C. A., et al. (1991). J. Clin. Invest 88: 1605-1612). Following each migration assay, non-adherent PMN were extensively washed from the surface of the monolayer and PMN cell equivalents (PMN CE), estimated from a standard curve, were assessed as the number of PMN's associated with the monolayer, the number which had completely traversed the monolayer (ie. across the monolayer into the reservoir bath), as well as the total number of transmigrating PMN (the sum of monolayer and reservoir-associated PMN).
Data Presentation: Individual experiments were performed using large numbers of uniform groups of monolayers and PMN from individual blood donors on individual days. PMN isolation was restricted to five different blood donors (repetitive donations) over the course of these studies. Myeloperoxidase assay data were compared by two-factor analysis of variance (ANOVA) or by comparison of means using Student's t-Test PMN migration results are represented as PMN CE derived from a daily standard PMN dilution curve. Monolayer-associated PMN are represented as the number of PMN CE per monolayer and reservoir-associated PMN (ie. PMN which had completely traversed the monolayer into the lower chamber) are represented as the number of PMN CE/ml (total volume of 1 ml). […]

[2] = test system: T84 intestinal epithelial cells; assay: fMLP-induced PMN migration after LXA4 exposure of T84 epithelial monolayers; assay type: cell-based, human
Method: Lipoxins Synthetic LXA4, LXB4, and 11-trans-LXA4 were obtained from Cascade Biochem Ltd. (Berkshire, United Kingdom). Concentrations were determined from extinction coefficients as described in Sheppard K-A., et al. (1992). Biochimica et Biophysica Acta 1133: 223-234. All eicosanoid stock solutions were stored at −70° C. in […] (American Scientific Products). Eicosanoids were diluted in modified HBSS to a concentration of 1 μM prior to all experiments. PMN or T84 monolayers were exposed to lipoxins at indicated concentrations and allowed to incubate at 37° C. for the indicated period of time. Vehicle controls consisted of dilutions of the solvent (ethanol) equivalent to the highest concentration of lipoxin used in any given experiment (0.01%). […]
as §1, with “PMN). […]” for “PMN).”

[3] = test system: human PMN migration across T84 epithelial monolayers; assay: Effect of inhibitors on baseline and LXA4-elicited PMN transepithelial migration, apical-to-basolateral; assay type: cell-based; conditions: for LXA4-elicited increase in fMLP driven PMN migration over control: LXA4 10 nM
[4] = biological target: lipoxin binding sites on human PMN; conditions: reported; cited from earlier work
[5] = 10 nM LXA4, 30 min pre-exposure
[6] = PMN pre-exposed 10 nM LXA4 15 min 37°C, 1 μM fMLP, 120 min

CCCCC[C@H](O)/C=C/C=C\C=C\C=C\[C@@H](O)[C@@H](O)CCCC(=O)O (relative stereo) [LXA4, (5S, 6R, 15S)-trihydroxy-7,9,13-trans-11-cis-eicosatetraenoic acid]
PMN in lower reservoirs ([1]; 0.001 nM LXA4, 15 min pre-exposure 37°C): 13.71±4.14 ×10^4 PMN CE/ml | PMN in lower reservoirs ([1]; 0.01 nM LXA4, 15 min pre-exposure 37°C): 14.11±3.01 ×10^4 PMN CE/ml | PMN in lower reservoirs ([1]; 0.1 nM LXA4, 15 min pre-exposure 37°C): 15.43±4.65 ×10^4 PMN CE/ml | PMN in lower reservoirs ([1]; 1 nM LXA4, 15 min pre-exposure 37°C): 19.96±4.83 ×10^4 PMN CE/ml | total PMN migration after LXA4 washout ([1]; 10 nM LXA4 15 min, PMN then washed twice in HBSS): 14.5±0.3 ×10^4 PMN CE/ml | total PMN migration (total MPO activity) ([1]; 10 nM LXA4 15 min, harvested 45 min after addition of PMN): 1.51±0.12 ×10^4 PMN CE/ml | fold increase in the total number of transmigrating PMN ([1]; 10 nM LXA4 15 min vs vehicle control): ~2 fold | total PMN migration ([1]; 10 nM LXA4, 0 min pre-exposure): 16.61±3.56 ×10^4 total PMN CE/ml | total PMN migration relative to vehicle control ([1]; 10 nM LXA4, 45 and 60 minutes pre-exposure): returned to vehicle control values | increase in total PMN migration compared to vehicle controls ([1]; 10 nM LXA4, 5 min pre-exposure): 50% | reservoir-associated PMN ([1]; 10 nM LXA4, 5 min pre-exposure): 18.02±3.35 ×10^4 PMN CE/ml | increase in total PMN migration compared to vehicle controls ([1]; 10 nM LXA4, 15 min pre-exposure): 80% and 68% | increase in total PMN migration compared to vehicle controls [1, 5]: 51% | reservoir-associated PMN [1, 5]: 19.64±3.54 ×10^4 PMN CE/ml | monolayer-associated PMN [1, 6]: 6.93±1.77 ×10^4 PMN CE/monolayer and 7.55±0.71 ×10^4 PMN CE/monolayer | reservoir-associated PMN (completely traversed the monolayer) [1, 6]: 11.02±2.91 ×10^4 PMN CE/ml and 19.96±3.18 ×10^4 PMN CE/ml and 20.38±4.83 ×10^4 PMN CE/ml | total number of transmigrating PMN ([1]; PMN pre-exposed 10 nM LXA4 15 min, LXA4 present, 1 μM fMLP, 120 min): 18.6±1.0 ×10^4 PMN CE/ml and 17.95±2.15 ×10^4 PMN CE/ml | total number of transmigrating PMN ([2]; T84 monolayers incubated with 10 nM LXA4 15 min 37°C, LXA4 not removed, untreated PMN, 1 μM fMLP): 15.7±1.8 ×10^4 PMN CE/ml | total number of transmigrating PMN ([2]; T84 monolayers incubated with 10 nM LXA4 15 min, LXA4 removed by washing thrice with HBSS before PMN): 14.3±1.1 ×10^4 PMN CE/ml | LXA4-elicited increase in fMLP driven PMN migration over control ([3]; PMN pre-exposed to indomethacin 50 μM): 61±11% | LXA4-elicited increase in fMLP driven PMN migration over control ([3]; without indomethacin): 54±7% | LXA4-elicited increase in PMN migration compared to control ([3]; LXA4 10 μM (so in the source), pertussis toxin experiment): 46±3% | Kd [4]: 0.5 nM
